The source of these data is ChEMBL document CHEMBL3421531, “Synthesis, and structure-activity relationship for C(4) and/or C(5) thienyl substituted pyrimidines, as a new family of antimycobacterial compounds” (Eur J Med Chem, 2015).

Data set [1] deals with Mycobacterium tuberculosis. In words: Antimycobacterial activity against Mycobacterium tuberculosis H37Rv after 10 days by microbroth dilution method. Format: functional. The settings on record: 240 h. For orientation: Broth dilution looks for growth in wells or tubes with falling amounts of substance.
In another data set the test system is Mycobacterium avium. Description: Antimycobacterial activity against Mycobacterium avium after 10 days by microbroth dilution method. Format: functional. The settings on record: 240 h.
The subject of a further data set is Mycolicibacter terrae. In words: Antimycobacterial activity against Mycobacterium terrae after 10 days by microbroth dilution method. The format is functional. The settings on record: 240 h.
A short description of data set [2]: Toxicity in peroral dosed mouse after 14 days. The format is organism-based. The settings on record: in vivo, po.

≈ marks a conversion by molar mass, not a printed value.

`Brc1ccc(-c2ncncc2-c2cc3ccccc3s2)s1`: the minimal inhibitory concentration (MIC) (in data set [1]; against Mycobacterium avium; with Mycolicibacter terrae) was 33.5 µM (≈ 12.5 µg/mL) each time.

In the case of `c1csc(-c2ccc(-c3ncncc3-c3ccsc3)s2)c1`, the MIC (in data set [1]; against Mycobacterium avium; in the data set with Mycolicibacter terrae) was 19.1 µM (≈ 6.25 µg/mL) in each case.

On to `c1ccc(-c2ccc(-c3ncncc3-c3cc4ccccc4s3)s2)cc1`, for which the minimal inhibitory concentration (MIC) (usually the lowest concentration that inhibits growth of the organism) in data set [1] was 8.37 µM (≈ 3.1 µg/mL); in the data set with Mycobacterium avium, 8.37 µM (≈ 3.1 µg/mL); in the data set with Mycolicibacter terrae, 4.05 µM (≈ 1.5 µg/mL).

As for `c1csc(-c2cncnc2)c1`, the MIC in data set [1] amounted to 38.5 µM (≈ 6.25 µg/mL); with Mycobacterium avium, 19.1 µM (≈ 3.1 µg/mL); against Mycolicibacter terrae, 19.1 µM (≈ 3.1 µg/mL).

As for `Brc1ccc(-c2ncncc2-c2cccs2)s1`, the MIC (in data set [1]; in the data set on Mycobacterium avium; against Mycolicibacter terrae) was 38.7 µM (≈ 12.5 µg/mL) in each case.

Take `c1csc(-c2ccc(-c3ncncc3-c3csc4ccccc34)s2)c1`: the MIC in data set [1] turned out to be 0.98 µM (≈ 0.369 µg/mL); against Mycobacterium avium it was 0.98 µM (≈ 0.369 µg/mL); with Mycolicibacter terrae, 0.4 µM (≈ 0.151 µg/mL). Also, in data set [2], the 50% lethal dose (LD50) (in general, the dose at which mortality reaches 50%) at 336 h was 90 mg/kg.

`c1csc(-c2ncncc2-c2cc3ccccc3s2)c1`: the minimal inhibitory concentration (MIC) (in data set [1]; in the data set on Mycobacterium avium; with Mycolicibacter terrae) was 21.2 µM (≈ 6.25 µg/mL) each time.

Compound `NC(=O)c1cnccn1` [PYRAZINAMIDE] showed an MIC in data set [1] of 102 µM (≈ 12.5 µg/mL).

As to `c1ncc(-c2ccsc2)cn1`, the MIC (in data set [1]; against Mycobacterium avium; against Mycolicibacter terrae) was 77.1 µM (≈ 12.5 µg/mL) in each case.

As for `c1csc(-c2ccc(-c3ncncc3-c3cccs3)s2)c1`, the values for the MIC (in data set [1]; against Mycobacterium avium; in the data set with Mycolicibacter terrae) were 2.14 µM (≈ 0.699 µg/mL), 0.92 µM (≈ 0.3 µg/mL) and 0.92 µM (≈ 0.3 µg/mL), respectively. Further, the LD50 at 336 h in data set [2] stood at 160 mg/kg.

In the case of `c1ccc(-c2ccc(-c3ncncc3-c3cccs3)s2)cc1`, the MIC (in data set [1]; with Mycobacterium avium; against Mycolicibacter terrae) was 39 µM (≈ 12.5 µg/mL) in each case.

Take `Brc1ccc(-c2ncncc2-c2ccsc2)s1`: the MIC (in data set [1]; with Mycobacterium avium; against Mycolicibacter terrae) was 19.3 µM (≈ 6.25 µg/mL) in each case.

In the case of `c1csc(-c2ccc(-c3cncnc3)s2)c1`, the MIC (in data set [1]; in the data set on Mycobacterium avium; against Mycolicibacter terrae) was 25.6 µM (≈ 6.25 µg/mL) in each case.

Regarding `c1ccc2c(-c3cncnc3)csc2c1`, the MIC was found to be 7.07 µM (≈ 1.5 µg/mL) in data set [1], 3.3 µM (≈ 0.701 µg/mL) in the data set with Mycobacterium avium and 3.3 µM (≈ 0.701 µg/mL) in the data set on Mycolicibacter terrae. Besides, the LD50 at 336 h in data set [2] is 700 mg/kg.

For `c1ccc(-c2ccc(-c3ncncc3-c3csc4ccccc34)s2)cc1`, the minimum inhibitory concentration (MIC) (in data set [1]; in the data set on Mycobacterium avium; against Mycolicibacter terrae) was 0.4 µM (≈ 0.148 µg/mL) in each case. The same compound had an LD50 at 336 h in data set [2] of 45 mg/kg.

For the compound `c1csc(-c2cncnc2-c2cccs2)c1`, the minimal inhibitory concentration (MIC) (in data set [1]; in the data set with Mycobacterium avium; in the data set with Mycolicibacter terrae) was 12.7 µM (≈ 3.1 µg/mL) in each case.

As to `Brc1ccc(-c2cncnc2)s1`, the MIC (in data set [1]; against Mycobacterium avium; against Mycolicibacter terrae) was 51.8 µM (≈ 12.5 µg/mL) in each case.

Consider `c1csc(-c2ccc(-c3ncncc3-c3cc4ccccc4s3)s2)c1`, for which the MIC (in data set [1]; against Mycobacterium avium; in the data set on Mycolicibacter terrae) was 33.2 µM (≈ 12.5 µg/mL) in each case.

Take `c1ccc(-c2ccc(-c3ncncc3-c3ccsc3)s2)cc1`: the minimum inhibitory concentration (MIC) (in data set [1]; with Mycobacterium avium; in the data set on Mycolicibacter terrae) was 19.5 µM (≈ 6.25 µg/mL) each time.

As to `NNC(=O)c1ccncc1` [ISONIAZID], the MIC (in data set [1]; against Mycobacterium avium; with Mycolicibacter terrae) was 0.73 µM (≈ 0.1 µg/mL) throughout.

Consider `c1ccc(-c2ccc(-c3cncnc3)s2)cc1`, for which the minimum inhibitory concentration (MIC) (in data set [1]; against Mycobacterium avium; in the data set with Mycolicibacter terrae) was 26.2 µM (≈ 6.25 µg/mL) in each case.

Regarding `c1csc(-c2ncncc2-c2ccsc2)c1`, the MIC (in data set [1]; against Mycobacterium avium; in the data set with Mycolicibacter terrae) was 25.6 µM (≈ 6.25 µg/mL) each time.

On to `c1csc(-c2ncncc2-c2csc3ccccc23)c1`, for which the minimal inhibitory concentration (MIC) (in data set [1]; with Mycobacterium avium; against Mycolicibacter terrae) was 42.5 µM (≈ 12.5 µg/mL) in each case.

Take `Brc1ccc(-c2ncncc2-c2csc3ccccc23)s1`: the MIC in data set [1] amounted to 8.3 µM (≈ 3.1 µg/mL); against Mycobacterium avium, 8.3 µM (≈ 3.1 µg/mL); in the data set with Mycolicibacter terrae it was 4.02 µM (≈ 1.5 µg/mL).

For `Brc1ccc(-c2ncncc2Br)s1`, the MIC (in data set [1]; against Mycobacterium avium; in the data set with Mycolicibacter terrae) was 9.69 µM (≈ 3.1 µg/mL) throughout.

Regarding `c1csc(-c2ccc(-c3ccncn3)s2)c1`, the MIC (in data set [1]; with Mycobacterium avium; in the data set on Mycolicibacter terrae) was 51.2 µM (≈ 12.5 µg/mL) throughout.

Regarding `Brc1cncnc1`, the minimum inhibitory concentration (MIC) (in data set [1]; in the data set on Mycobacterium avium; in the data set on Mycolicibacter terrae) was 78.6 µM (≈ 12.5 µg/mL) each time.

Regarding `c1ccc2sc(-c3cncnc3)cc2c1`, the minimum inhibitory concentration (MIC) (in data set [1]; in the data set with Mycobacterium avium; in the data set on Mycolicibacter terrae) was 58.9 µM (≈ 12.5 µg/mL) throughout.
